# Data reported in patent publication US9765074B2, “Inhibitors of the renal outer medullary potassium channel” (Merck Sharp & Dohme Corp., priority 2013, dated 2017).
# Biological target: T1, hROMK (hKir1.1) (Homo sapiens, UniProt P48048)
# T1 construct: expressed in transfected cells
# T1 sequence (P48048 1-391): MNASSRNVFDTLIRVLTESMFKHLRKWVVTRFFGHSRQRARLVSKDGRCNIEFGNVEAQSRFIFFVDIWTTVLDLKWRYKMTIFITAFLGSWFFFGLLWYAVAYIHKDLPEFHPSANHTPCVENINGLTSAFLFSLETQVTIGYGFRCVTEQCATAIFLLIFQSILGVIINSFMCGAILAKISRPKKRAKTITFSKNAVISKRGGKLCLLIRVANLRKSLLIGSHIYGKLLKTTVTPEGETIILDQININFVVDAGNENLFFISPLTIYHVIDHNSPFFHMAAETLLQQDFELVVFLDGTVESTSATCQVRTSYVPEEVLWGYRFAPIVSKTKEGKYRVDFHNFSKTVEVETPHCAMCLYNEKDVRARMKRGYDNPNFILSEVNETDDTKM
# Assay: Thallium Flux Assay (ROMK channel functional thallium flux, FLIPR-Tetra)
# Format: cell-based
# Conditions: HEK293 cells stably expressing hROMK (hKir1.1); 30 min compound incubation
# Outline: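 Thallium flux read by FluxOR fluorescence ([…]) for ~10 min after adding 3 mM Tl+/0.3 mM K+ final. Stable HEK-hKir1.1 cells were dye-loaded 90 min, exposed to compound 30 min at room temperature in ouabain/probenecid buffer; IC50 relative to a 3 μM control inhibitor.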
row,Structure (SMILES),IC50 [nM]
1,"CC1=C(N2CC[C@]3(CCN(C[C@H](O)c4cnc(-n5cnnn5)cn4)CC3F)C2=O)COC1=O (mixture of isomers) [Example 224, 6-fluoro-8-{(2S)-2-hydroxy-2-[5-(1H-tetrazol-1-yl)pyrazin-2-yl]ethyl}-2-(4-methyl-5-oxo-2,5-dihydrofuran-3-yl)-1-oxo-2-aza-8-azoniaspiro[4.5]decane]",110
2,"CC1=C(N2CCC3(CCN(CCc4ncc(-n5cnnn5)nc4C)CC3)C2=O)COC1=O [Example 252, 2-(4-methyl-5-oxo-2,5-dihydrofuran-3-yl)-8-{2-[3-methyl-5-(1H-tetrazol-1-yl)pyrazin-2-yl]ethyl}-2,8-diazaspiro[4.5]decan-1-one]",10
3,"CC1=C(N2CCC3(CC4COCC(C3)N4C[C@H](O)c3cnc(-n4cnnn4)cn3)C2=O)COC1=O (stereo partly drawn) [Example 181, 9-{(2S)-2-hydroxy-2-[5-(1H-tetrazol-1-yl)pyrazin-2-yl]ethyl}-1′-(4-methyl-5-oxo-2,5-dihydrofuran-3-yl)-2′H-spiro[7-oxa-9-azabicyclo[3.3.1]nonane-3,3′-pyrrolidin]-2′-one]",150
4,"CC1=C(N2CCC3(CC4CN(C)CC(C3)N4C[C@H](O)c3ccc(-n4cnnn4)nc3)C2=O)COC1=O (stereo partly drawn) [Example 112, (1R,5R,7R,9R)-9-{(2R)-2-hydroxy-2-[6-(1H-tetrazol-1-yl)pyridin-3-yl]ethyl}-7-methyl-1′-(4-methyl-5-oxo-2,5-dihydrofuran-3-yl)-2′-oxospiro[7,9-diazoniabicyclo[3.3.1]nonane-3,3′-pyrrolidine]]",410
5,"CC1=C(N2CCC3(CCN(C[C@@H](O)c4ccc(-n5cnnn5)c(C)n4)CC3)C2=O)COC1=O [Example 31, 8-{(2R)-2-hydroxy-2-[6-methyl-5-(1H-tetrazol-1-yl)pyridin-2-yl]ethyl}-2-(4-methyl-5-oxo-2,5-dihydrofuran-3-yl)-1-oxo-2-aza-8-azoniaspiro[4.5]decane]",30
6,"CC1=C(N2CC[C@@]3(CCN(C[C@H](O)c4cnc(-n5cnnn5)cn4)CC3F)C2=O)COC1=O (mixture of isomers) [Example 225, 6-fluoro-8-{(2S)-2-hydroxy-2-[5-(1H-tetrazol-1-yl)pyrazin-2-yl]ethyl}-2-(4-methyl-5-oxo-2,5-dihydrofuran-3-yl)-1-oxo-2-aza-8-azoniaspiro[4.5]decane]",150
7,"CC1=C(N2CC(O)C3(CCN(CCc4ccc(-n5cnnn5)nc4)CC3)C2=O)COC1=O (single isomer, unassigned) [Example 244, 4-hydroxy-2-(4-methyl-5-oxo-2,5-dihydrofuran-3-yl)-1-oxo-8-{2-[6-(1H-tetrazol-1-yl)pyridin-3-yl]ethyl}-2-aza-8-azoniaspiro[4.5]decane]",30
8,"CC1=C(N2C=CC3(CCN([C@@H](C)Cc4nnc(-n5cnnn5)cc4C)CC3)C2=O)COC1=O (single isomer, unassigned) [Example 274]",10
9,"CC1=C(N2CCC3(CCN(C[C@H](O)c4c(F)cc(-n5cnnn5)cc4F)CC3)C2=O)COC1=O [Example 76, 8-{(2R)-2-[2,6-difluoro-4-(1H-tetrazol-1-yl)phenyl]-2-hydroxyethyl}-2-(4-methyl-5-oxo-2,5-dihydrofuran-3-yl)-1-oxo-2-aza-8-azoniaspiro[4.5]decane]",20
10,"CC1=C(N2CCC3(CCN(C[C@H](O)c4ccc(-n5cnnn5)cc4C)CC3)C2=O)COC1=O [Example 38, 8-{(2R)-2-hydroxy-2-[2-methyl-4-(1H-tetrazol-1-yl)phenyl]ethyl}-2-(4-methyl-5-oxo-2,5-dihydrofuran-3-yl)-1-oxo-2-aza-8-azoniaspiro[4.5]decane]",10
11,"CC1CC2(CC3CCC(C2)N3C[C@H](O)c2ccc(-n3cnnn3)nc2)C(=O)N1C1=CC(=O)OC1 (single isomer, unassigned) [Example 102]",10
12,"COC1CN(C2=C(C)C(=O)OC2)C(=O)C12CC1CCC(C2)N1C[C@@H](O)c1ccc(-n2cnnn2)nc1 (single isomer, unassigned) [Example 109]",60
13,"CC1=C(N2CCC3(CCN(CCc4nnc(-n5cnnn5)cc4C)CC3F)C2=O)COC1=O (single isomer, unassigned) [Example 267, 6-fluoro-2-(4-methyl-5-oxo-2,5-dihydrofuran-3-yl)-8-{2-[4-methyl-6-(1H-tetrazol-1-yl)pyridazin-3-yl]ethyl}-2,8-diazaspiro[4.5]decan-1-one]",10
14,"CC1=C(N2CCC3(CC4CCC(C3)N4C[C@@H](O)c3cnc(-n4cnnn4)cn3)C2=O)COC1=O (stereo partly drawn) [Example 49, (1R,5R)-8-{(2R)-2-hydroxy-2-[5-(1H-tetrazol-1-yl)pyrazin-2-yl]ethyl}-1′-(4-methyl-5-oxo-2,5-dihydrofuran-3-yl)-2′-oxospiro[8-azoniabicyclo[3.2.1]octane-3,3′-pyrrolidine]]",90
15,"COCC1=C(N2CCC3(CCN(C[C@H](O)c4ccc(-n5cnnn5)nc4)CC3)C2=O)COC1=O [Example 182, 8-{(2R)-2-hydroxy-2-[6-(1H-tetrazol-1-yl)pyridin-3-yl]ethyl}-2-[4-(methoxymethyl)-5-oxo-2,5-dihydrofuran-3-yl]-2,8-diazaspiro[4.5]decan-1-one]",50
16,"COC1CN(C2=C(C)C(=O)OC2)C(=O)C12CCN(C[C@H](O)c1ccc(-n3cnnn3)nc1)CC2 (single isomer, unassigned) [Example 114]",60
17,"CC1=C(N2CCC3(CCN(C[C@H](O)c4cccc(-n5cnnn5)c4)CC3)C2=O)COC1=O [Example 61, 8-{(2R)-2-hydroxy-2-[3-(1H-tetrazol-1-yl)phenyl]ethyl}-2-(4-methyl-5-oxo-2,5-dihydrofuran-3-yl)-1-oxo-2-aza-8-azoniaspiro[4.5]decane]",70
18,"CC1=C(N2CCC3(CCN(C[C@H](O)c4ccc(-n5cnnn5)nc4C)CC3O)C2=O)COC1=O (single isomer, unassigned) [Example 202]",60

# Second part, the molecule after the results:
row,IC50 [nM],Structure (SMILES)
1,30,"CCC1CC2(CCN(C[C@H](O)c3cnc(-n4cnnn4)cn3)CC2)C(=O)N1C1=CC(=O)OC1 (mixture of isomers) [Example 221, 3-ethyl-8-{(2S)-2-hydroxy-2-[5-(1H-tetrazol-1-yl)pyrazin-2-yl]ethyl}-2-(5-oxo-2,5-dihydrofuran-3-yl)-2,8-diazaspiro[4.5]decan-1-one]"
2,30,"CC1=C(N2C(=O)C3(CCN(CCc4ccc(-n5cnnn5)nn4)CC3)CC2C)COC1=O (racemic) [Example 240, 3-methyl-2-(4-methyl-5-oxo-2,5-dihydrofuran-3-yl)-1-oxo-8-{2-[6-(1H-tetrazol-1-yl)pyridazin-3-yl]ethyl}-2-aza-8-azoniaspiro[4.5]decane]"
3,30,"CC1=C(N2C(=O)C3(CCN(C[C@@H](O)c4ccc(-n5cnnn5)cc4F)CC3)CC2C)COC1=O (single isomer, unassigned) [Example 142]"
4,80,"Cc1cc([C@@H](O)CN2CCC3(CC2)CCN(C2=CC(=O)OC2)C3=O)ncc1-n1cnnn1 [Example 7, 8-{(2S)-2-hydroxy-2-[4-methyl-5-(1H-tetrazol-1-yl)pyridin-2-yl]ethyl}-1-oxo-2-(5-oxo-2,5-dihydrofuran-3-yl)-2-aza-8-azoniaspiro[4.5]decane]"
5,70,"O=C1C=C(N2C(=O)C3(CCN(C[C@H](O)c4ccc(-n5cnnn5)nn4)CC3)CC2C2CC2)CO1 (mixture of isomers) [Example 210, 3-cyclopropyl-8-{(2S)-2-hydroxy-2-[6-(1H-tetrazol-1-yl)pyridazin-3-yl]ethyl}-2-(5-oxo-2,5-dihydrofuran-3-yl)-2,8-diazaspiro[4.5]decan-1-one]"
6,30,"O=C1C=C(N2C(=O)C3(CCN(C[C@H](O)c4ccc(-n5cnnn5)nc4)CC3)CC2C2CC2)CO1 (mixture of isomers) [Example 214, 3-cyclopropyl-8-{(2R)-2-hydroxy-2-[6-(1H-tetrazol-1-yl)pyridin-3-yl]ethyl}-2-(5-oxo-2,5-dihydrofuran-3-yl)-2,8-diazaspiro[4.5]decan-1-one]"
7,40,"CC1=C(N2C(=O)C3(CCN(C[C@H](O)c4ccc(-n5cnnn5)cc4C)CC3)CC2C)COC1=O (single isomer, unassigned) [Example 139]"
8,20,"CC1=CC2(CCN(CCc3ccc(-n4cnnn4)nn3)CC2)C(=O)N1C1=CC(=O)OC1 [Example 255, 3-methyl-2-(5-oxo-2,5-dihydrofuran-3-yl)-8-{2-[6-(1H-tetrazol-1-yl)pyridazin-3-yl]ethyl}-2,8-diazaspiro[4.5]dec-3-en-1-one]"
9,30,"CC1=C(N2CCC3(CCN(C[C@H](O)c4ccc(-n5cnnn5)nc4C)CC3)C2=O)COC1=O [Example 20, 8-{(2R)-2-hydroxy-2-[2-methyl-6-(1H-tetrazol-1-yl)pyridin-3-yl]ethyl}-2-(4-methyl-5-oxo-2,5-dihydrofuran-3-yl)-1-oxo-2-aza-8-azoniaspiro[4.5]decane]"
10,120,"O=C1C=C(N2C=CC3(CCN(C[C@H](O)c4ccc(-n5cnnn5)nn4)CC3)C2=O)CO1 [Example 201, 8-{(2S)-2-hydroxy-2-[6-(1H-tetrazol-1-yl)pyridazin-3-yl]ethyl}-1-oxo-2-(5-oxo-2,5-dihydrofuran-3-yl)-2-aza-8-azoniaspiro[4.5]dec-3-ene]"
11,180,"CC1OC(=O)C=C1N1CCC2(CCN(C[C@H](O)c3ccc(-n4cnnn4)nc3)CC2)C1=O (mixture of isomers) [Example 227, 8-((R)-2-(6-(1H-tetrazol-1-yl)pyridin-3-yl)-2-hydroxyethyl)-2-(2-methyl-5-oxo-2,5-dihydrofuran-3-yl)-2,8-diazaspiro[4.5]decan-1-one]"
